Measured values as given in US6433019B1, “Neurotrophic factor secretion promoters” (Sumitomo Pharmaceuticals Company, Limited, priority 1998, dated 2002).
Where two headings read alike, the source gives them in different places.

Tests used:
[1] = tested on: cultured neural cells from the cerebral neocortex of rat embryo (E18); experiment: NO production (nitrite, Griess' method) in the cultured neural cells; format: cell-based; details: 3 hours and 5 hours after addition, FIG. 2A
Protocol: The following experiment was done in order to confirm the NO production by neural cells, and to clarify which isozyme of three nitric oxide synthase isozymes (References el and e2) (neuronal type; nNOS, endothelial type; eNOS and inducible type; iNOS) is involved with the NO production, The cultured neural cells were prepared by using the neural cells from the cerebral neocortex of rat embryo (E18), and culturing thereof in a serum free medium for 7 days (Reference e3). The supernatant of the culture medium was collected, and the concentration of nitrite was determined, which was used as an index for the total amount of NO production (FIG. 1A). The concentration of nitrite was determined by Griess' method (Reference e4). […] The expression of NOS in the cultured cells was detected by Western blotting (FIG. 1B). The protein extracted from the cultured cells being electrophoresed on a nitrocellulose membrane was detected by labeling it with 3 anti-NOS antibodies (Transduction Lab., 1/500 to 1000 dilution), treating with peroxidase-labeled anti-IgG antibody, and visualizing by chemical luminescence reaction (ECL kit by Amersham Pharmacia Biotech). In the cultured neural cell sample, the nNOS-like immunoreaction was detected, but eNOS immunoreaction was hardly detected, and further INOS immunoreaction was not detected at all. […]

BDNF mRNA = BDNF mRNA by quantitative RT-PCR in cultured brain neural cells; format: cell-based, rat
Protocol: (§1) The following experiment was done in order to confirm the NO production by neural cells, and to clarify which isozyme of three nitric oxide synthase isozymes (References el and e2) (neuronal type; nNOS, endothelial type; eNOS and inducible type; iNOS) is involved with the NO production, The cultured neural cells were prepared by using the neural cells from the cerebral neocortex of rat embryo (E18), and culturing thereof in a serum free medium for 7 days (Reference e3). The supernatant of the culture medium was collected, and the concentration of nitrite was determined, which was used as an index for the total amount of NO production (FIG. 1A). The concentration of nitrite was determined by Griess' method (Reference e4). During the cultivation, the accumulation of nitrite in the supernatant was increased. The expression of NOS in the cultured cells was detected by Western blotting (FIG. 1B). The protein extracted from the cultured cells being electrophoresed on a nitrocellulose membrane was detected by labeling it with 3 anti-NOS antibodies (Transduction Lab., 1/500 to 1000 dilution), treating with peroxidase-labeled anti-IgG antibody, and visualizing by chemical luminescence reaction (ECL kit by Amersham Pharmacia Biotech). In the cultured neural cell sample, the nNOS-like immunoreaction was detected, but eNOS immunoreaction was hardly detected, and further INOS immunoreaction was not detected at all. The product by nNOS immunoreaction as mentioned above has a molecular weight of about 160 kD, which is coincident with that of nNOS as reported in literatures. […]
(§2) From the finding that the inhibition of NO synthesis in the cultured brain neural cells increased the expression of BDNF gene, it was clarified that endogenous NO affect the regulation of BDNF gene expression. […] SNAP was added to the culture system at various concentrations, and 3 hours and 5 hours thereafter, the BDNF MRNA was determined by quantitative RT-PCR, and the BDNF protein in the cells was determined by EIA, in the same manner as in Example 2.

BDNF protein = BDNF protein in the cells by EIA; format: cell-based, rat; details: for BDNF protein in the cells: FIG. 2C
Protocol: as §1, §2

BDNF-trkB complex = experiment: BDNF release: sandwich immunoassay of BDNF-trkB complex on the cell surface; format: cell-based, rat; details: FIG. 3B
Excerpt: The effects of an NO donor on the BDNF release were studied in order to clarify the inhibitory effects of SNAP at a high dose on the BDNF protein accumulation. First, the measurement of BDNF concentration in the culture supernatant was tried, but the concentration of BDNF therein was below a detection limitation value of an ordinary EIA, which was considered that the released BDNF immediately combines with the cell surface, even with the trkB receptor. Then, using an anti-pan-trk receptor antibody, a sandwich immunoassay was tried in order to determine the BDNF combined with a trk B receptor on the cell surface.

[2] = tested on: cultured brain neural cells; experiment: Growth of cultured neural cells (cytotoxicity); format: cell-based, rat; details: high dose (1000 μM)
[3] = compared with other NO donors (Reference e5); cited from earlier work
[4] = cited from earlier work; for serious side effects: oral administration to human, estimated
[5] = rats, cited from earlier work

SMILES: CC(=O)NC(C(=O)O)C(C)(C)SN=O (racemic) [SNAP, S-nitroso-N-acetyl-DL-penicillamine]
- NO release from the NO donor (nitrite) [1]: NO was released from the NO donor
- expression of BDNF gene (BDNF mRNA; lower dose (30 to 300 μM), FIG. 2B): increased dose-dependently
- expression of BDNF mRNA (BDNF mRNA; quite high dose (1000 μM), FIG. 2B): inhibited
- BDNF protein in the cells (BDNF protein; higher dose than 30 μM): dose-dependent decrease
- BDNF protein in the cells (BDNF protein; only at 30 μM): increased
- amount of the BDNF-trkB complex (BDNF-trkB complex; dose of 100 μM or more): significantly increased
- growth of cells [2]: no change in the growth of cells
- cytotoxicity [3]: weaker than that of other NO donors

SMILES: N=C(N)NCCC[C@H](N)C(=O)O [arginine]
- toxicity ([4]; up to 20 g per day of arginine glutamate by intravenous drip): quite low

SMILES: O=[N+]([O-])O[C@@H]1CO[C@H]2[C@@H]1OC[C@@H]2O [ISMN, isosorbide mononitrate]
- LD50 ([5]; i.v.): 40 mg/kg
- LD50 ([5]; p.o.): 1050 to 1550 mg/kg

SMILES: COCC(/C(C)=C/C(=N/O)C(N)=O)[N+](=O)[O-] (stereo not shown) [NOR1]
- expression of BDNF gene (BDNF mRNA; dose not given): exhibited the same promoting activity

SMILES: N[C@@H](CCC(=O)O)C(=O)O [glutamic acid]
- BDNF synthesis promoting activity (BDNF protein): potent BDNF synthesis promoting activity
- BDNF secretion promoting activity (BDNF-trkB complex): did not show a distinguished BDNF secretion promoting activity

SMILES: O=[N+]([O-])OCC(CO[N+](=O)[O-])O[N+](=O)[O-] [NTG, nitroglycerin]
- serious side effects ([4]; dose up to several mg per day): does not show serious side effects

SMILES: O=[N+]([O-])O[C@H]1CO[C@H]2[C@@H]1OC[C@H]2O[N+](=O)[O-] [ISDN, isosorbide dinitrate]
- serious side effects ([4]; dose up to dozens mg per day): does not show serious side effects
